Source: US12319954B2, “Morphinan compounds” (Concert Pharmaceuticals, Inc., priority 2007, dated 2025)

What was measured:
[1] = Metabolic stability in cynomolgus monkey liver microsomes; conditions: 1 μM compound, 0.5 mg/mL microsomes; FIG. 1
Experimental: (§1) The objectives of this study were to determine the metabolic stability of the test compounds in pooled human and […] liver microsomal incubations. Samples of the test compounds, exposed to pooled human or […] liver microsomes, were analyzed using HPLC-MS (or MS/MS) detection. For determining metabolic stability, multiple reaction monitoring (MRM) was used to measure the disappearance of the test compounds.
(§2) Experimental Procedures: Human liver and Cynomolgus monkey liver microsomes were obtained from XenoTech, LLC (Lenexa, KS). The incubation mixtures were prepared as follows:
Incubation of Test Compounds with Liver Microsomes: The reaction mixture, minus cofactors, was prepared. An aliquot of the reaction mixture (without cofactors) was incubated in a shaking water bath at 37° C. for 3 minutes. Another aliquot of the reaction mixture was prepared as the negative control. The test compound was added into both the reaction mixture and the negative control at a final concentration of 0.10, 0.25, or 1 μM. An aliquot of the reaction mixture was prepared as a blank control, by the addition of plain organic solvent (no test compound is added). The reaction was initiated by the addition of cofactors (not added to the negative controls), and then incubated in a shaking water bath at 37° C. […]
All samples were analyzed using LC-MS (or MS/MS). […]

[2] = Metabolic stability in human liver microsomes; conditions: for remained intact after 30 minutes of incubation: 0.25 μM compound, 2 mg/mL human liver microsomes, FIG. 2
Experimental: as §1, §2
Incubation of Test Compounds with Liver Microsomes: The reaction mixture, minus cofactors, was prepared. An aliquot of the reaction mixture (without cofactors) was incubated in a shaking water bath at 37° C. for 3 minutes. Another aliquot of the reaction mixture was prepared as the negative control. The test compound was added into both the reaction mixture and the negative control at a final concentration of 0.10, 0.25, or 1 μM. An aliquot of the reaction mixture was prepared as a blank control, by the addition of plain organic solvent (no test compound is added). The reaction was initiated by the addition of cofactors (not added to the negative controls), and then incubated in a shaking water bath at 37° C. Aliquots (200 μL) were withdrawn in triplicate at multiple time points and combined with 800 μL of ice-cold 50/50 acetonitrile/dH2O to terminate the reaction.
All samples were analyzed using LC-MS (or MS/MS). An LC-MRM-MS/MS method is used for metabolic stability. For testing in cynomolgus monkey liver microsomes, a final concentration of 1 μM of each compound and 0.5 mg/mL of microsomes were used.

[3] = Plasma levels in cynomolgus monkeys after oral BID co-dosing of Compound 101 and dextromethorphan, with or without quinidine; assay type: in vivo
Experimental: Blood Sample Collection—Blood sampling tOOK place on Day 6 after oral administration of the last dose (Dose 11). Blood (approximately 1 mL) was collected via femoral vein into tubes containing sodium heparin anticoagulant at 0.25, 0.5, 1, 1.5, 2, 3.5, 6 and 8 hours. The plasma was separated via centrifugation and stored in −20° C. before analysis.
Dilution using cynomolgus monkey plasma blank were applied if the sample concentration was over the ULOQ of calibration standard curve. The data acquisition and control system was created using Analyst 1.4 software from ABI Inc.

[4] = monkeys, FIG. 6
Experimental: OBJECTIVE—The objective of this study was to collect plasma samples from Cynomolgus Monkeys at various time points following oral administration of test articles in combination. The samples were used for the determination of plasma drug levels by LC/MS/MS for estimating pharmacokinetic parameters. This study was conducted in accordance with Shanghai Medicilon Inc. Standard Operating Procedures (SOPs). The Sponsor provided the test compounds and internal standard compound.
EXPERIMENTAL DESIGN—Four Cynomolgus Monkeys were used in this study.
The combination dose was prepared by mixing both by 1:1 to yield a concentration of 1 mg/mL for each compound. […] Quinidine was prepared in DMI:EtOH:PG:water (10:15:35:40, v/v/v/v) at 3 mg/mL and dosed separately. The doses were given BID orally with an interval of 12 hours. […] Dosing volume of Quinidine was determined based on the dose each animal was getting. Dose volumes for each test animal was determined based on individual body weight. Body weights were taken on each day of dose administration and were be recorded.
Urine Sample Collection—Urine samples in between two doses on Day 5 (for 12 hours between doses 9 and 10) were collected in a plate and quantified by volume. After collection, the urine samples were be stored in −20° C. and then shipped back to client. […]

[5] = molecular target: T1, Human CYP2D6+P450 Reductase SUPERSOMES (Homo sapiens, UniProt P10635); experiment: Metabolic stability in CYP2D6 SUPERSOMES; assay type: in vitro ADME; conditions: 0.1 μM compound, 20 minutes
T1 construct: purchased GenTest (Woburn, MA, USA); host or cells: insect cells (inferred from the negative control, insect cell microsomes)
T1 sequence (P10635 whole entry): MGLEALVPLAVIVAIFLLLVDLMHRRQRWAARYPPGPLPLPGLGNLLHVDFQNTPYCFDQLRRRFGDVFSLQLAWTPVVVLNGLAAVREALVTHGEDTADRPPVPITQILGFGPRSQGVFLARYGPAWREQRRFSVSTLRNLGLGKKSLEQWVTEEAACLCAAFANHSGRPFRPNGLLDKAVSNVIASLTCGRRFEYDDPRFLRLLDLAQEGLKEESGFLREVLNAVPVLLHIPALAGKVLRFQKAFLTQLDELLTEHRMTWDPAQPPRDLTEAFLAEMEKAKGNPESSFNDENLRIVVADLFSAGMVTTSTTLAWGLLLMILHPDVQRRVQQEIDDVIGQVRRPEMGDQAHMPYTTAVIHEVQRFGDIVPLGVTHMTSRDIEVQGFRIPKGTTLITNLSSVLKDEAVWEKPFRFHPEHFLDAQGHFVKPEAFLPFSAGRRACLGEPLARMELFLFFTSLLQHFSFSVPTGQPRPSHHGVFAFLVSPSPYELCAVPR
Experimental: Human CYP2D6+P450 Reductase SUPERSOMES™ were purchased from GenTest (Woburn, MA, USA). […] Aliquots (50 μL) were removed from each sample and placed in wells of a multi-well plate at 0, 2, 5, 7, 12, 20, and 30 minutes and to each was added 50 μL of ice cold acetonitrile with 3 μM haloperidol as an internal standard to stop the reaction.
Plates containing the removed aliquots were then placed in −20° C. freezer for 15 minutes to cool. After cooling, 100 μL of deionized water was added to all wells in the plate. Plates were then spun in the centrifuge for 10 minutes at 3000 rpm. A portion of the supernatant (100 μL) was then removed, placed in a new plate and analyzed using Mass Spectrometry.

Molecule	stability in monkey liver microsomes compared with dextromethorphan [1]	remained intact after 30 minutes of incubation [2]	plasma levels compared to dextromethorphan ([3]; co administered with the same amount of quinidine, FIG. 5)	metabolism to deuterated dextrorphan isotopologues (plasma) ([3]; no quinidine, FIG. 4)	urine level of parent compound compared to dextromethorphan ([4]; at the same quinidine concentration)	intact compound at the 20 minute time point with 2D6 Supersomes [5]	urine levels, effect of quinidine concentration [4]	remained intact after a 30 minute exposure ([2]; 0.5 mg/mL human liver microsomes) [%]
[2H]C([2H])([2H])Oc1ccc2c(c1)[C@]13CCCC[C@@H]1[C@H](C2)N(C([2H])([2H])[2H])CC3 [Compound 101, (+)-3-d3-methoxy-17-d3-methyl-(9α, 13α, 14α)-morphinan]	greater stability than dextromethorphan	approximately 45%	greater than dextromethorphan plasma levels	reduced relative to metabolism of dextromethorphan to dextrorphan	less Compound 101 in the urine than dextromethorphan	–	–	–
COc1ccc2c(c1)[C@]13CCCC[C@@H]1[C@H](C2)N(C)CC3 [Dextromethorphan, (+)-3-methoxy-17-methyl-(9α, 13α, 14α)-morphinan, reference compound]	–	about 33%	–	–	–	no intact dextromethorphan could be detected	affected by increasing quinidine concentration	–
(+)-3-d3-methoxy-17-methyl-(9α, 13α, 14α)-morphinan [Compound 100]	greater stability than dextromethorphan	~42%	–	–	–	–	–	~71
